Experimental data taken from US20240299385A1 (ReWind Therapeutics NV, priority 2021, published 2024).

Target: T1, human GPR17 receptor (Homo sapiens, UniProt Q13304)
T1 construct: host or cells: HEK-293
Test: Calcium mobilization functional assay (Fluo-8, FLIPR TETRA) in HEK-293 hGPR17 (Gα-q assay)
Type: cell-based
Conditions: antagonism of MDL29,951 (~EC80) induced Ca2+ signal; cell line (HEK-293 hGPR17 or HEK-293 Suchi5 hGPR17) not given
How it was run: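 Fluo-8-loaded HEK-293 hGPR17 cells (60 min dye loading, room temperature) were preincubated with compound for twenty minutes, then challenged with agonist MDL29,951 at ~EC80, 500 nM. Intracellular calcium release via Gα-q was recorded as FLIPR fluorescence for a further 2 minutes; compounds tested in duplicate.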

T1 sequence (Q13304 whole entry): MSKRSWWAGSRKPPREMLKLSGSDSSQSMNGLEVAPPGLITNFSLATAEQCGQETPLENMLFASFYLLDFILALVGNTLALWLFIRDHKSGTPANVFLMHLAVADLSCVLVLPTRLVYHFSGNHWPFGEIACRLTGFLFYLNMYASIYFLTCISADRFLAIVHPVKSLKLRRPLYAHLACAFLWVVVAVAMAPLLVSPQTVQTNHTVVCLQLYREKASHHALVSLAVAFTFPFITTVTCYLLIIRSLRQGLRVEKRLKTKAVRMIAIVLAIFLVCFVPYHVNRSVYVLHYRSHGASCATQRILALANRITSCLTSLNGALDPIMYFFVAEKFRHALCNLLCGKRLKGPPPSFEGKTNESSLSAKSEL

First: N#Cc1ccc(NS(=O)(=O)c2c[nH]c(-c3nccc4ccccc34)c2)c(F)c1 [Cpd 396, N-(4-cyano-2-fluorophenyl)-5-isoquinolin-1-yl-1H-pyrrole-3-sulfonamide]
Second: N#Cc1ccc(NS(=O)(=O)c2c[nH]c(-c3ccccc3OC3CC3)c2)c(F)c1 [Cpd 397, N-(4-cyano-2-fluorophenyl)-5-(2-cyclopropyloxyphenyl)-1H-pyrrole-3-sulfonamide]
The IC50 of the first is lower: less than 500 nM for the first, 500 to 5000 nM for the second.

`N#Cc1ccc(NS(=O)(=O)c2c[nH]cc2-c2cccs2)c(F)c1` [Cpd 398, N-(4-cyano-2-fluorophenyl)-4-thiophen-2-yl-1H-pyrrole-3-sulfonamide] and `N#Cc1ccc(NS(=O)(=O)c2c[nH]cc2-c2ccsc2)c(F)c1` [Cpd 400, N-(4-cyano-2-fluorophenyl)-4-thiophen-3-yl-1H-pyrrole-3-sulfonamide] fall in the same range of IC50: 500 to 5000 nM for the first, 500 to 5000 nM for the second.

`O=S(=O)(Nc1cc(OC(F)F)c(Cl)cc1F)c1c[nH]c(-c2ccccc2)c1` [Cpd 399, N-[4-chloro-5-(difluoromethoxy)-2-fluorophenyl]-5-phenyl-1H-pyrrole-3-sulfonamide] and `O=S(=O)(Nc1cc(OC(F)F)c(Cl)cc1F)c1c[nH]c(-c2ccccn2)c1` [Cpd 419, N-[4-chloro-5-(difluoromethoxy)-2-fluorophenyl]-5-pyridin-2-yl-1H-pyrrole-3-sulfonamide] fall in the same range of IC50: 500 to 5000 nM for the first, 500 to 5000 nM for the second.

`Cc1cc(-c2c[nH]cc2S(=O)(=O)Nc2ccc(C#N)cc2F)cs1` [Cpd 401, N-(4-cyano-2-fluorophenyl)-4-(5-methylthiophen-3-yl)-1H-pyrrole-3-sulfonamide] and `Cc1ccc(-c2c[nH]cc2S(=O)(=O)Nc2ccc(C#N)cc2F)s1` [Cpd 420, N-(4-cyano-2-fluorophenyl)-4-(5-methylthiophen-2-yl)-1H-pyrrole-3-sulfonamide] cannot be ordered by IC50: less than 500 nM for the first, less than 500 nM for the second.

`N#Cc1ccc(NS(=O)(=O)c2c[nH]cc2-c2cccc(C3CC3)c2)c(F)c1` [Cpd 402, N-(4-cyano-2-fluorophenyl)-4-(3-cyclopropylphenyl)-1H-pyrrole-3-sulfonamide] and `N#Cc1ccc(NS(=O)(=O)c2c[nH]cc2-c2cccnc2)c(F)c1` [Cpd 437, N-(4-cyano-2-fluorophenyl)-4-(pyridin-3-yl)-1H-pyrrole-3-sulfonamide] fall in the same range of IC50: 5000 to 50000 nM for the first, 5000 to 50000 nM for the second.

`O=S(=O)(Nc1cc(F)c(OC(F)F)cc1F)c1c[nH]c(-c2nccs2)c1` [Cpd 403, N-[4-(difluoromethoxy)-2,5-difluorophenyl]-5-(1,3-thiazol-2-yl)-1H-pyrrole-3-sulfonamide] and `O=S(=O)(Nc1cc(F)c(OC(F)F)cc1F)c1c[nH]c(-c2ncccc2F)c1` [Cpd 404, N-[4-(difluoromethoxy)-2,5-difluorophenyl]-5-(3-fluoropyridin-2-yl)-1H-pyrrole-3-sulfonamide] cannot be ordered by IC50: less than 500 nM for the first, less than 500 nM for the second.

`N#Cc1cc(F)c(NS(=O)(=O)c2c[nH]cc2Cc2ccccc2)cc1F` [Cpd 407, 4-benzyl-N-(4-cyano-2,5-difluorophenyl)-1H-pyrrole-3-sulfonamide] and `N#Cc1cc(F)c(NS(=O)(=O)c2c[nH]cc2Cc2ccccc2)cc1Cl` [Cpd 439, 4-benzyl-N-(5-chloro-4-cyano-2-fluorophenyl)-1H-pyrrole-3-sulfonamide] cannot be ordered by IC50: less than 500 nM for the first, less than 500 nM for the second.

`O=S(=O)(Nc1ncc(OC(F)F)cc1F)c1c[nH]c(-c2ccccc2)c1` [Cpd 408, N-[5-(difluoromethoxy)-3-fluoropyridin-2-yl]-5-phenyl-1H-pyrrole-3-sulfonamide] and `O=S(=O)(Nc1ncc(OCC(F)F)cc1F)c1c[nH]c(-c2ccccc2)c1` [Cpd 434, N-[5-(2,2-difluoroethoxy)-3-fluoropyridin-2-yl]-5-phenyl-1H-pyrrole-3-sulfonamide] fall in the same range of IC50: 500 to 5000 nM for the first, 500 to 5000 nM for the second.

Compared with `O=S(=O)(Nc1cc(F)c(OC(F)F)cc1F)c1c[nH]c(-c2ccccc2F)c1` [Cpd 409, N-[4-(difluoromethoxy)-2,5-difluorophenyl]-5-(2-fluorophenyl)-1H-pyrrole-3-sulfonamide], `O=S(=O)(Nc1cc(F)c(OC(F)F)cc1F)c1c[nH]c(-c2cc(Cl)ccc2F)c1` [Cpd 410, 5-(5-chloro-2-fluorophenyl)-N-[4-(difluoromethoxy)-2,5-difluorophenyl]-1H-pyrrole-3-sulfonamide] is higher in IC50: less than 500 nM for the first, 500 to 5000 nM for the second. The first is the more potent here.

`O=S(=O)(Nc1cc(F)c(OC(F)F)cc1F)c1c[nH]c(-c2ccc(F)cc2)c1` [Cpd 411, N-[4-(difluoromethoxy)-2,5-difluorophenyl]-5-(4-fluorophenyl)-1H-pyrrole-3-sulfonamide] and `O=S(=O)(Nc1cc(F)c(OC(F)F)cc1F)c1c[nH]c(-c2ccc(F)cc2F)c1` [Cpd 412, N-[4-(difluoromethoxy)-2,5-difluorophenyl]-5-(2,4-difluorophenyl)-1H-pyrrole-3-sulfonamide] fall in the same range of IC50: 500 to 5000 nM for the first, 500 to 5000 nM for the second.

First: O=S(=O)(Nc1cc(F)c(Br)cc1F)c1c[nH]c(-c2ccccc2F)c1 [Cpd 413, N-(4-bromo-2,5-difluorophenyl)-5-(2-fluorophenyl)-1H-pyrrole-3-sulfonamide]
Second: O=S(=O)(Nc1cc(F)c(Br)cc1F)c1c[nH]c(-c2cc(Cl)ccc2F)c1 [Cpd 414, N-(4-bromo-2,5-difluorophenyl)-5-(5-chloro-2-fluorophenyl)-1H-pyrrole-3-sulfonamide]
The IC50 of the first is lower: less than 500 nM for the first, 500 to 5000 nM for the second. The first is the more potent here.

`N#CCOc1cc(F)c(NS(=O)(=O)c2c[nH]cc2Cc2ccccc2)cc1F` [Cpd 415, 4-benzyl-N-[4-(cyanomethoxy)-2,5-difluorophenyl]-1H-pyrrole-3-sulfonamide] and `O=S(=O)(Nc1cc(OC(F)F)c(Cl)cc1F)c1c[nH]cc1Cc1ccccc1` [Cpd 426, 4-benzyl-N-[4-chloro-5-(difluoromethoxy)-2-fluorophenyl]-1H-pyrrole-3-sulfonamide] fall in the same range of IC50: 500 to 5000 nM for the first, 500 to 5000 nM for the second.

First: N#Cc1cc(F)c(NS(=O)(=O)c2c[nH]cc2Cc2cccs2)cc1F [Cpd 416, N-(4-cyano-2,5-difluorophenyl)-4-(thiophen-2-ylmethyl)-1H-pyrrole-3-sulfonamide]
Second: O=S(=O)(Nc1cc(F)c(Br)cc1F)c1c[nH]cc1Cc1cccs1 [Cpd 417, N-(4-bromo-2,5-difluorophenyl)-4-(thiophen-2-ylmethyl)-1H-pyrrole-3-sulfonamide]
The IC50 of the first is lower: less than 500 nM for the first, 500 to 5000 nM for the second.

`O=S(=O)(Nc1cc(F)c(C(F)(F)F)cc1F)c1c[nH]cc1Cc1cccs1` [Cpd 418, N-[2,5-difluoro-4-(trifluoromethyl)phenyl]-4-(thiophen-2-ylmethyl)-1H-pyrrole-3-sulfonamide] and `O=S(=O)(Nc1cc(F)c(C(F)(F)F)cc1F)c1c[nH]c(C2CCC2)c1` [Cpd 430, 5-cyclobutyl-N-(2,5-difluoro-4-(trifluoromethyl)phenyl)-1H-pyrrole-3-sulfonamide] cannot be ordered by IC50: less than 500 nM for the first, less than 500 nM for the second.

`N#Cc1ccc(NS(=O)(=O)c2c[nH]c(C3CCCCC3)c2)c(F)c1` [Cpd 421, N-(4-cyano-2-fluorophenyl)-5-cyclohexyl-1H-pyrrole-3-sulfonamide] and `O=S(=O)(Nc1cc(F)c(C(F)(F)F)cc1F)c1c[nH]c(C2CCCCC2)c1` [Cpd 423, 5-cyclohexyl-N-[2,5-difluoro-4-(trifluoromethyl)phenyl]-1H-pyrrole-3-sulfonamide] fall in the same range of IC50: 500 to 5000 nM for the first, 500 to 5000 nM for the second.

`COc1nc(Cl)c(F)cc1NS(=O)(=O)c1c[nH]c(-c2ccccc2)c1` [Cpd 422, N-(6-chloro-5-fluoro-2-methoxypyridin-3-yl)-5-phenyl-1H-pyrrole-3-sulfonamide] and `COc1nc(OCC(F)F)c(F)cc1NS(=O)(=O)c1c[nH]c(-c2ccccc2)c1` [Cpd 436, N-[6-(2,2-difluoroethoxy)-5-fluoro-2-methoxypyridin-3-yl]-5-phenyl-1H-pyrrole-3-sulfonamide] cannot be ordered by IC50: less than 500 nM for the first, less than 500 nM for the second.

`O=S(=O)(Nc1cc(F)c(C(F)(F)F)cc1F)c1c[nH]c(C2CCOC2)c1` (stereo not drawn) [Cpd 424, N-[2,5-difluoro-4-(trifluoromethyl)phenyl]-5-(oxolan-3-yl)-1H-pyrrole-3-sulfonamide] and `O=S(=O)(Nc1cc(OC(F)F)c(Cl)cc1F)c1c[nH]cc1-c1cccc(F)c1` [Cpd 425, N-[4-chloro-5-(difluoromethoxy)-2-fluorophenyl]-4-(3-fluorophenyl)-1H-pyrrole-3-sulfonamide] fall in the same range of IC50: 500 to 5000 nM for the first, 500 to 5000 nM for the second.

First: COc1nc(Cl)c(F)cc1NS(=O)(=O)c1c[nH]cc1Cc1ccccc1 [Cpd 427, 4-benzyl-N-(6-chloro-5-fluoro-2-methoxypyridin-3-yl)-1H-pyrrole-3-sulfonamide]
Second: COc1nc(Br)cnc1NS(=O)(=O)c1c[nH]cc1Cc1ccccc1 [Cpd 431, 4-benzyl-N-(5-bromo-3-methoxypyrazin-2-yl)-1H-pyrrole-3-sulfonamide]
The IC50 of the first is lower: 500 to 5000 nM for the first, 5000 to 50000 nM for the second.

First: COc1nc(Cl)c(F)cc1NS(=O)(=O)c1c[nH]cc1-c1cccc(F)c1 [Cpd 428, N-(6-chloro-5-fluoro-2-methoxypyridin-3-yl)-4-(3-fluorophenyl)-1H-pyrrole-3-sulfonamide]
Second: O=S(=O)(Nc1ncc(OCC(F)F)cc1F)c1c[nH]cc1-c1cccc(F)c1 [Cpd 438, N-[5-(2,2-difluoroethoxy)-3-fluoropyridin-2-yl]-4-(3-fluorophenyl)-1H-pyrrole-3-sulfonamide]
The IC50 of the first is lower: 500 to 5000 nM for the first, 5000 to 50000 nM for the second. The first is the more potent here.

First: COc1cc(OC(F)F)cnc1NS(=O)(=O)c1c[nH]c(-c2ccccc2)c1 [Cpd 429, N-[5-(difluoromethoxy)-3-methoxypyridin-2-yl]-5-phenyl-1H-pyrrole-3-sulfonamide]
Second: COc1cc(OC(F)F)cnc1NS(=O)(=O)c1c[nH]cc1Cc1ccccc1 [Cpd 433, 4-benzyl-N-[5-(difluoromethoxy)-3-methoxypyridin-2-yl]-1H-pyrrole-3-sulfonamide]
The IC50 of the first is lower: 500 to 5000 nM for the first, 5000 to 50000 nM for the second.

`O=S(=O)(Nc1ncc(OCC(F)F)cc1F)c1c[nH]cc1Cc1ccccc1` [Cpd 432, 4-benzyl-N-[5-(2,2-difluoroethoxy)-3-fluoropyridin-2-yl]-1H-pyrrole-3-sulfonamide] and `COc1nc(Br)cnc1NS(=O)(=O)c1c[nH]c(-c2ccccc2)c1` [Cpd 435, N-(5-bromo-3-methoxypyrazin-2-yl)-5-phenyl-1H-pyrrole-3-sulfonamide] fall in the same range of IC50: 500 to 5000 nM for the first, 500 to 5000 nM for the second.
